For one data set, the target named is T1, JAK1 kinase (Homo sapiens, UniProt P23458).
T1 construct: purchased Invitrogen PV4744
The data set can be described thus: In vitro inhibitory activity on JAK1 kinase (ADP-Glo Kinase Assay). As to conditions: JAK1 kinase 4 nM, 1 mM ATP. In kind it is biochemical. In outline: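 JAK1 (4 nM final) preincubated with compound 15 min at 25° C., then substrate mix (1 mM ATP, IRS1 0.05 mg/ml) added for 60 min at 25° C. ADP-Glo luminescence read-out; top concentration 10 μM, 3-fold, 10 points, duplicates; IC50 reported in ranged classes.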
A general note: In ADP-Glo the light output rises with the ADP produced.

The target of another data set is T2, TYK2 kinase (Homo sapiens, UniProt P29597).
T2 sequence (P29597 897-1187 limits assumed): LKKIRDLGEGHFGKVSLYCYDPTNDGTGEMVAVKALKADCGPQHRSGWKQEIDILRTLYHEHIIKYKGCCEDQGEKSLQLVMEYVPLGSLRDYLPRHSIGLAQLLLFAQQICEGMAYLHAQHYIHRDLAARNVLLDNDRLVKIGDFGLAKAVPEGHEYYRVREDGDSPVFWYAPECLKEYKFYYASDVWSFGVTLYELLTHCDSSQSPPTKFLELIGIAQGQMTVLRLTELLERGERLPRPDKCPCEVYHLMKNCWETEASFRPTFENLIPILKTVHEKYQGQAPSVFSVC
Kind of data set: In vitro inhibitory activity on Tyk2 kinase (ADP-Glo Kinase Assay). In kind it is biochemical. The note with it: TYK2 kinase 4 nM, 1 mM ATP. The protocol:
Test Example 2: Determination of In Vitro Inhibitory Activity of the Compounds of the Present Invention on Tyk2 Kinase Experimental materials: TYK2 (Invitrogen, PV4790), ATP (Promega, V915B), ADP-Glo Kinase Assay (Promega, V9101), IRS1 (Signalchem, 140-58-1000). Sample preparation: The compounds of the present invention and the control product were dissolved in DMSO solvent respectively to formulate into 10 mM initial liquid. The maximum concentration of the compound was 10 μM, 3-fold dilution, 10 concentration gradients, and duplicate wells for each concentration gradient. Experimental process: 0.1 μL of the compound to be tested was transferred into a 384 reaction plate (PE, 6007290) via Echo and centrifuged at 1000 rpm/min for 1 min. 5 μL TYK2 kinase (final concentration of 4 nM) was transferred into the 384 reaction plate, which was then centrifuged at 1000 rpm/min for 1 min, and incubated at 25° C. for 15 min. 5 μL substrate mixture (1 mM ATP, IRS1 0.05 mg/ml, kinase buffer solution) was transferred into the 384 reaction plate, which was then centrifuged at 1000 rpm/min for 1 min, and incubated at 25° C. for 60 min. 10 μL ADP-Glo was transferred into the 384 reaction plate, which was then centrifuged at 1000 rpm/min for 1 min, and incubated at 25° C. for 40 min. 20 μL test solution was transferred into the 384 reaction plate, which was centrifuged at 1000 rpm/min for 1 min and incubated at 25° C. for 40 min. RLU (Relative luminescence unit) signal was read by using an Envision multifunctional plate reader. The signal intensity was used to characterize the degree of the kinase activity. […] IC50 value of 0-100 nM is shown as A, IC50 value of 100-300 nM is shown as B, IC50 value of 300-1000 nM is shown as C, and IC50 value which is greater than 1000 nM is shown as D. NT means not tested.

Data set [1] has as its system IFN-2α-stimulated TYK2/JAK1-mediated pathway (pSTAT3). Kind of data set: Inhibition of STAT3 signaling pathway of human whole blood (IFN-2α-induced pSTAT3, flow cytometry). The data set is classed as cell-based. How it is done: Test Example 3: Inhibition Effect of the Compounds of the Present Invention on STAT3 Signaling Pathway of Human Whole Blood
Sample preparation: The compounds of the present invention and the control were dissolved in DMSO solvent respectively to formulate into 10 mM initial liquid. The maximum concentration of the compound was 10 μM, 3-fold dilution, 10 concentration gradients, and duplicate wells for each concentration gradient.
Experimental process: 20 μL of the compound of the present invention was added to a flow cytometer tube (BD, 352052) containing 180 μL anticoagulant sodium heparin. 20 μL PBS was added to the control. The sample was incubated at 37° C. for 30 min. 2 μL stimulating factor was added and then incubated at 37° C. for 20 min. 1 mL erythrocyte lysate was rapidly added, and the sample was repeatedly inverted 5-10 times or vortexed and then incubated at 37° C. for 10 min. The sample was centrifuged at 600 g for 6-8 min. The supernatant was discarded. The precipitate was vortexed until suspending. The cells were washed with 3 mL PBS and centrifuged at 600 g for 6-8 min. The supernatant was discarded. The precipitate was vortexed until suspending. 1 mL of membrane breaking solution was added, and the system was mixed gently, incubated on ice for 30 min, and centrifuged at 600 g for 6-8 min. The supernatant was discarded. The precipitate was vortexed until suspending. The cells were washed. 3 mL PBS was added. The system was centrifuged at 600 g for 6-8 min. The supernatant was discarded. The precipitate was vortexed untile suspending. The process was repeated twice. 100 μL PBS was added to each staining tube. IFN-2a was added for stimulation, and CD3 and pSTAT3 antibodies […] were added. The system was mixed well, protected from light and incubated at room temperature for 60 min. The cells were washed. 3 mL PBS was added. The system was centrifuged at 600 g for 6-8 min. The supernatant was discarded. The precipitate was vortexed until suspending. The precipitate was suspended in 150 μL in the dark for the flow cytometry analysis. The IC50 (half inhibitory concentration) of the compounds was obtained by using the following non-linear fitting equation:
Y=Bottom+(Top−Bottom)/(1+10^((Log IC50−X)*HillSlope));
X: Log value of the concentration of the compound;
Bottom: The minimum value, Top: The maximum value, HillSlope: Slope
The inhibition effect of by the compounds of the present invention on the IFN-2α-stimulated TYK2/JAK1-mediated pathway is shown in Table 3. IC50 value of 0-100 nM is shown as A, IC50 value of 100-300 nM is shown as B, IC50 value of 300-1000 nM is shown as C, IC50 value which is greater than 1000 nM is shown as D. NT means not tested.
In general terms: Flow cytometry measures light scatter and fluorescence of single cells or particles in a stream.

Data set [2] is described as follows: Pharmacokinetic study in rats after oral administration. The data set is classed as in vivo, SD rats. How it is done:
Experimental Example 5: Pharmacokinetic Studies of the Compounds of Example 1, Example 1-a, Example 1-b and Example 3 in Rats In order to investigate the blood concentration and pharmacokinetic parameters of the compounds of the present invention after oral administration, the corresponding LC/MS/MS assay and plasma treatment methods were developed for the compounds of the Experimental Examples. […] Male SD rats were orally administered at a dose of 5 mg/kg. Blood was orbitally collected and anticoagulated with sodium heparin. The plasma was deproteinated with acetonitrile. The samples were analyzed by LC/MS/MS method. Wherein, AUC<1000 μg/L*h is shown as C, AUC between 1000-2000 μg/L*h is shown as B, AUC>2000 μg/L*h is shown as A; Cmax<600 μg/L is shown as C, Cmax between 600-900 μg/L is shown as B, and Cmax>900 μg/L is shown as A.

The mark [3] stands for this setting: rat, male SD rats, oral 5 mg/kg, plasma.

This note sets out measurements from patent publication US20220348572A1, “BRIDGED HETEROCYCLYL-SUBSTITUTED PYRIMIDINE COMPOUND, PREPARATION METHOD THEREFOR, AND PHARMACEUTICAL USE THEREOF” (The National Institutes of Pharmaceutical R&D Co., Ltd., priority 2019, published 2022).

Where only a bound is given, the exact number is not on record here.

T1 sequence (P23458 866-1154 limits assumed): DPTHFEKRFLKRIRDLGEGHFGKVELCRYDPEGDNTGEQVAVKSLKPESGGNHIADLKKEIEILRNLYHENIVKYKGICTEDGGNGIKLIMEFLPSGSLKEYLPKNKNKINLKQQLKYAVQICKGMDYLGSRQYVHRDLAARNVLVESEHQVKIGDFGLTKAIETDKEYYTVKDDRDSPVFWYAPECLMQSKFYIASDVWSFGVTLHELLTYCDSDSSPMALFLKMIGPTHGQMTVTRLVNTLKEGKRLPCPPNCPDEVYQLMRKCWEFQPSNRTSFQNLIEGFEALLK

The IC50 is the point on the concentration scale where inhibition reaches its midpoint. Lower therefore signals higher potency. For orientation: AUC(0-t) means the area under the concentration-time curve up to a stated or last time point. A low value points to less exposure. As a reminder, the Cmax is the peak of the concentration-time curve. Consider `Cn1cc(Nc2nccc(C3=C[C@@H]4CC[C@H](C3)N4C(=O)[C@@H]3CC3(F)F)n2)cn1` (single isomer, unassigned) [Compound 1-a], for which the IC50 (against JAK1 kinase; on TYK2 kinase; in data set [1]) was < 100 nM each time. In addition, in data set [2] (oral administration in SD rats), the “pharmacokinetic parameters (in words)” value is listed as “good pharmacokinetic parameters”. In data set [2] (setting [3]), the AUC(0-t) was in the range of 1000 to 2000 ng·h/mL. In data set [2] (setting [3]), this molecule displayed a Cmax of 600 to 900 ng/mL.
`Cn1cc(Nc2nccc(C3=CC4CCC(C3)N4C(=O)NCC#N)n2)cn1` (stereo not shown) [Compound 2, N-(cyanomethyl)-3-(2-((1-methyl-1H-pyrazol-4-yl)amino)pyrimidin-4-yl)-8-azabicyclo[3.2.1]oct-2-ene-8-carboxamide]: the IC50 on JAK1 kinase and against TYK2 kinase was < 100 nM throughout.
As for `Cn1cc(Nc2ncc(F)c(C3=CC4CCC(C3)N4C(=O)NCC#N)n2)cn1` (stereo not shown) [Compound 11, N-(cyanomethyl)-3-(5-fluoro-2-((1-methyl-1H-pyrazol-4-yl)amino)pyrimidin-4-yl)-8-azabicyclo[3.2.1]oct-2-ene-8-carboxamide], the IC50 against JAK1 kinase and against TYK2 kinase was < 100 nM each time.
In the case of `Cn1cc(Nc2ncc(F)c(C3=CC4CCC(C3)N4C(=O)NCC(F)(F)F)n2)cn1` (stereo not shown) [Compound 12, 3-(5-fluoro-2-((1-methyl-1H-pyrazol-4-yl)amino)pyrimidin-4-yl)-N-(2,2,2-trifluoroethyl)-8-azabicyclo[3.2.1]oct-2-ene-8-carboxamide], the IC50 against JAK1 kinase and on TYK2 kinase was < 100 nM throughout.
Regarding `Cn1cc(Nc2nccc(C3=CC4CCC(C3)N4C(=O)C3CC3F)n2)cn1` (stereo not shown) [Compound 51, (2-fluorocyclopropyl)(3-(2-((1-methyl-1H-pyrazol-4-yl)amino)pyrimidin-4-yl)-8-azabicyclo[3.2.1]oct-2-en-8-yl)methanone], the IC50 (on JAK1 kinase; in data set [1]) was < 100 nM throughout.
Regarding `Cn1cc(Nc2nccc(C3=CC4CCC(C3)N4C(=O)NC3(C#N)CC3)n2)cn1` (stereo not shown) [Compound 54, N-(1-cyanocyclopropyl)-3-(2-((1-methyl-1H-pyrazol-4-yl)amino)pyrimidin-4-yl)-8-azabicyclo[3.2.1]oct-2-ene-8-carboxamide], the IC50 against JAK1 kinase is > 1000 nM; in data set [1], < 100 nM.
